Laboratory results taken from US20160002391A1, “POLYMERS, SUBSTRATES, METHODS FOR MAKING SUCH, AND DEVICES COMPRISING THE SAME” (AVERTICA, INC., priority 2013, published 2016).
Where a name gives a salt, the structure may show the parent alone.

Columns and labels:
[1] = test system: mushroom tyrosinase (phenyl oxidase); test: Substituted substrates for phenol oxidases: polymer formation with mushroom tyrosinase; format: biochemical; details: 5 mM potassium phosphate buffer, 200 Units tyrosinase, up to 3 hours
Procedure: 6-hydroxyindole, 6-hydroxyindole-3-carboxaldehyde, 1,2-dihydroxybenzene (catechol), 2,3-dihydroxybenzaldehyde, and 3,4-dihydroxybenezaldehyde were used as substrates for phenol oxidases.
6-hydroxyindole, 6-hydroxyindole-3-carboxaldehyde, 1,2-dihydroxybenzene (catechol), 2,3-dihydroxybenzaldehyde, and 3,4-dihydroxybenezaldehyde were dissolved in water at a concentration of 0.03 g/ml. Ten microliters of each was diluted into 90 microliter of 5 mM potassium phosphate buffer and 2 μl of mushroom tyrosinase (phenyl oxidase, 200 Units) was added. The reactions were allowed to proceed for up to 3 hours. […] Buffer alone with no substrates were used as controls and were negative for polymer formation.

[2] = test system: mushroom tyrosinase (polyphenol oxidase); test: Polymer production in enzymatic tyrosinase (polyphenol oxidase) reaction; format: biochemical; set-up: key: +++: Reacted within about 1 hour; ++: reacted within about 3 hours; +: reacted within about 24 hours; +/−: inconclusive results; −: no reaction
Procedure: All reactions were carried out in approximately 50 mM potassium phosphate buffer, pH 6.5 with approximately 5 mM substrate and mushroom tyrosinase (polyphenol oxidase) Sigma T3824 in an amount of 100 to 10,000 units. Reaction volumes varied from 200 μl to 2 ml. In cases where substrates were not completely solubilized, then a saturated solution was used as the limit of solubility. In some cases, a solution of DMSO was used to increase solubility of the substrates. […] The reactions were observed over a 24 hour period for the production of polymers, and the presence and color of polymer and solution was recorded.
The production of polymers in each reaction was visible as a precipitate in the well of a 96 well plate or in the reaction mixture on a glass slide.

[3] = as above, substrate (or marked component) dissolved in 20% DMSO
[4] = approx. 50 mM potassium phosphate buffer pH 6.5, approx. 5 mM substrate, observed over 24 hour period

| Polymer formation with mushroom tyrosinase [1] | Result (polymer production in tyrosinase reaction) [2, 3] | Result (polymer production in tyrosinase reaction) [2, 4] | Structure (SMILES) |
| --- | --- | --- | --- |
| Polymers were formed |  | ++ (reacted within about 3 hours) | Oc1ccc2cc[nH]c2c1 [6 Hydroxyindole] |
| Polymers were formed |  |  | O=Cc1c[nH]c2cc(O)ccc12 [6-hydroxyindole-3-carboxaldehyde] |
|  |  | ++ (reacted within about 3 hours) | N[C@@H](Cc1ccc(O)cc1)C(=O)O [Tyrosine] |
|  |  | +++ (Reacted within about 1 hour) | Oc1ccc2[nH]ccc2c1 [5-hydroxyindole] |
|  |  | ++ (reacted within about 3 hours) | CN[C@@H](Cc1ccc(O)cc1)C(=O)O [N-methyl tyrosine] |

The next lines start with the compound.

| Structure (SMILES) | Polymer formation with mushroom tyrosinase [1] | Result (polymer production in tyrosinase reaction) [2, 3] | Result (polymer production in tyrosinase reaction) [2, 4] |
| --- | --- | --- | --- |
| O=Cc1cccc(O)c1O [2,3-dihydroxybenzaldehyde] | Polymers were formed |  |  |
| O=Cc1ccc(O)c(O)c1 [3,4-dihydroxybenezaldehyde] | Polymers were formed |  |  |
| CC1=NCCc2c1[nH]c1cc(O)ccc21 [Harmalol HCl dehydrate] |  | − |  |
| Cl.NCCc1ccc(O)cc1 [Tyramine HCl] |  |  | +++ (Reacted within about 1 hour) |
| Oc1ccccc1O [1,2-dihydroxybenzene (catechol), 1,2-dihydroxybenzene] | Polymers were formed |  |  |
| Oc1ccc2c(c1)[nH]c1ccccc12 [2 Hydroxy carbazole] |  | − |  |
| Cl.NCCc1ccccc1 [Beta phenylethylamine HCL] |  |  | +/− |
| NCCc1ccc(O)cc1 [Tyramine] |  |  | +++ (Reacted within about 1 hour) |
| Oc1ccc2cc(O)ccc2c1 [2,6 dihydroxnaphthalene] |  |  | + (reacted within about 24 hours) |
| c1ccc2[nH]ccc2c1 [Indole] |  |  | − |
| Oc1ccc(-c2cc(-c3ccc(O)cc3)cc(-c3ccc(O)cc3)c2)cc1 [1,3,5 Tris(4hydroxyphenyl)benzene] |  | + (reacted within about 24 hours) |  |
